Patent publication US20240124496A1, “BORONIC ACID COMPOUND AND METHOD FOR PRODUCING SAME” (OSAKA UNIVERSITY, priority 2021, published 2024)

How the values were obtained:
[1] = stability after labeling; assay type: physicochemical; details: crude product solution with ascorbic acid added
Method: 3-(4,4,5,5-Tetramethyl-1,3,2-dioxaboran-2-yl)-α-methyl-L-tyrosine hydrochloride (Bpin-AMT) was dissolved in water to prepare a 1 w/v % aqueous solution. This aqueous solution (0.1 mL) was put in a microtube, and then aqueous [^131I]sodium iodide solution (0.03 mL, 1 MBq, Institute of Isotopes Co., Ltd.) and 0.4 w/v% aqueous N-bromosuccinimide (NBS) solution (0.03 mL) were added thereto, and the mixture was reacted at room temperature for 30 min. Then, to the reaction solution was added 3 w/v% aqueous ascorbic acid solution (0.03 mL) to stop the reaction to give a crude product solution of 3-iodo(^131I)-α-methyl-L-tyrosine (^131I-IAMT).
This crude product solution (1 μL) was analyzed by thin-layer chromatograph method (TLC). The sample was spotted on a thin-layer plate (silica gel G60), and a mixed solvent of acetonitrile/water (2/1) was used as a developing solvent. The thin-layer plate was exposed to an imaging plate for about 15 min, and then analyzed by a bioimage analyzer (Typhoon FLT7000, GE Healthcare, Chicago). 3-Iodo(^131I)-α-methyl-L-tyrosine was detected at Rf 0.72, and the radiochemical yield (RCY) was 86.1%. This compound was stable up to 7 days after labeling.

[2] = molecular target: T1, amino acid transporter (LAT1) (Homo sapiens, UniProt Q01650); experiment: ^211At-AAMT intracellular uptake in MIA PaCa-2 cells; assay type: cell-based; details: 30 minutes; for inhibition of ^211At-AAMT intracellular uptake: excess amount (1 mM) added, ^211At-AAMT synthesized by the method of the present invention
T1 construct: endogenous in cells; host or cells: MIA PaCa-2 (human pancreatic cancer cells)
Method: Human pancreatic cancer cells MIA PaCa-2 were seeded in a 24-well culture plate at a concentration of 1×10^5 cells/mL. After 2 days, the medium was removed, the cells were washed with PBS (−), and the medium was replaced with HEPES Buffer (amino acid free). To each well, the ^211At-AAMT synthesized by the method of the present invention or the conventional mercury method was added. In addition, an excess amount (1 mM) of BCH (LAT1 inhibitor) or unlabeled (AMT) was added. After culturing the cells for 30 minutes, the cells were washed with PBS (−), and lysed with 0.1 N NaOH, and the radioactivity of the lysate was measured. The ^211At-AAMT intracellular uptake (radioactivity count/protein amount) was calculated by correcting the radioactivity per protein amount. The results are shown in FIG. 6 (FIG. 6a: the method of the present invention, FIG. 6b: the conventional mercury method). In FIG. 6, CTL is control, BCH is 2-aminobicyclo[2,2,1]heptane-2-carboxylic acid, and AMT is α-methyltyrosine.

[3] = system: HEK293 cells; experiment: cell viability after addition of ^211At-AAMT; assay type: cell-based; details: 0.00-5.00 kBq per well, 24 hours, FIG. 7
Method: HEK293 cells were seeded in a 24-well culture plate at a concentration of 1×10^5 cells/mL. After 2 days, the medium was removed, the cells were washed with PBS (−), and the medium was replaced with HEPES Buffer (amino acid free). To each well, 0.00-5.00 kBq of the ^211At-AAMT synthesized by the method of the present invention or the conventional mercury method was added. After culturing the cells for 24 hours, the cell viability was examined. […] Industrial Applicability

[4] = produced by the mercury method; Non-Patent Document 1; cited from earlier work

T1 sequence (Q01650 whole entry): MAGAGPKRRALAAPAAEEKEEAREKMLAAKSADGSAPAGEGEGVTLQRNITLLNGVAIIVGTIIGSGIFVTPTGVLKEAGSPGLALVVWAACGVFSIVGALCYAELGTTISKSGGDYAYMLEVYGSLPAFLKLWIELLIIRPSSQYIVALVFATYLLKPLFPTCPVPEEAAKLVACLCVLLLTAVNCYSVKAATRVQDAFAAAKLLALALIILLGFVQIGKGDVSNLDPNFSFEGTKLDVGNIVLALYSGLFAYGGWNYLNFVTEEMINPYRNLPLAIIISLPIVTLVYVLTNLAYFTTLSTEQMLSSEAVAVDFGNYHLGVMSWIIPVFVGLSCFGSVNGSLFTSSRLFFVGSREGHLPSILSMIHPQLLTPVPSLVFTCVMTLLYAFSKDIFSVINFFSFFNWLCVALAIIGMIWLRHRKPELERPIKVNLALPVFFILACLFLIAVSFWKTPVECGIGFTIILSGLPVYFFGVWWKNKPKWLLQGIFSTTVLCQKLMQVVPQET
T1 sequence (P08195 102-630 partner): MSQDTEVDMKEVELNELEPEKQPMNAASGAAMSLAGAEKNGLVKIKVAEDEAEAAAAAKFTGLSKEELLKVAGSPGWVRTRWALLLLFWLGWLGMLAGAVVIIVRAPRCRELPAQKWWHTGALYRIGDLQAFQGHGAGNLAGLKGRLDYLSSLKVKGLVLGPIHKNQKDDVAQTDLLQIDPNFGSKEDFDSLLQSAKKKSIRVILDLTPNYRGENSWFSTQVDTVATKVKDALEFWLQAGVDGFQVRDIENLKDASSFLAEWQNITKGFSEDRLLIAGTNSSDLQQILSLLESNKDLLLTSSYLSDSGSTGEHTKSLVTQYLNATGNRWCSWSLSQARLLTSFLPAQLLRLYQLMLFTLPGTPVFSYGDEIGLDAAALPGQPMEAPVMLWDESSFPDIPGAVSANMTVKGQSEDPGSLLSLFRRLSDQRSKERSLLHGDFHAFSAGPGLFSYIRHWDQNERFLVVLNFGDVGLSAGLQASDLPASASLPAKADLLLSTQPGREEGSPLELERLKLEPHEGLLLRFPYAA

Q: With `C[C@](N)(Cc1ccc(O)c([131I])c1)C(=O)O` [3-Iodo(^131I)-α-methyl-L-tyrosine, 3-iodo(^131I)-α-methyl-L-tyrosine] as the molecule, how does the “time stable after labeling” value [1] read?
A: Its value is “up to 7 days”.

Q: Which “inhibition of ^211At-AAMT intracellular uptake” value [2] does the source give for `C[C@](N)(Cc1ccc(O)cc1)C(=O)O` [AMT, α-methyltyrosine, reference compound] here?
A: Its value is “significantly inhibited”.

Q: Which “inhibition of ^211At-AAMT intracellular uptake” value [2] does the source give for `NC1(C(=O)O)CC2CCC1C2` (centres unmarked) [BCH, 2-aminobicyclo[2,2,1]heptane-2-carboxylic acid, reference compound] here?
A: The value was “significantly inhibited”.

Q: With `C[C@](N)(Cc1ccc(O)c([211At])c1)C(=O)O` [^211At-AAMT, 3-astato (^211At)-α-methyl-L-tyrosine] as the molecule, how does the “cell viability, compared with the method of the present invention” value ([3]; synthesized by the conventional mercury method) read?
A: The value was “consistent”.

Q: What about the cell viability ([3]; synthesized by the method of the present invention) of the same molecule?
A: The cell viability was “decreased in a dose-dependent manner”.

Q: And the “^211At-AAMT intracellular uptake and its inhibition by BCH and AMT, compared with the method of the present invention” value ([2]; synthesized by the conventional mercury method, FIG. 6b)?
A: The value was “consistent”.

Q: What about the “^211At-AAMT intracellular uptake (radioactivity count/protein amount)” value ([2]; synthesized by the method of the present invention, control (CTL), FIG. 6a) of the same molecule?
A: The value was “strongly taken up”.

Q: And the “stability of the produced ^211At-AAMT” value [4]?
A: The value was “unstable”.
